These results are taken from patent publication US12630498B2 (Genzyme Corporation, priority 2019, dated 2026).

For assay [1], the target named is T1, CFTR-mediated transepithelial chloride transport in primary human bronchial epithelial cells from a ΔF508 homozygous CF donor (Homo sapiens, UniProt P13569, DEL508-508).
T1 construct: Primary human bronchial epithelial cells from a ΔF508 homozygous CF donor; host or cells: primary CF-HBE cells, ΔF508 homozygous donor
Briefly: TECC24 recording of CFTR-mediated transepithelial chloride transport in CF-HBE cells (AUC fold over DMSO). It counts as cell-based. Particulars: test agent 10 μM, 48 hours incubation, AUC of forskolin-stimulated IEQ relative to DMSO. A digest of the protocol: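 Primary ΔF508/ΔF508 CF-HBE cells on inserts exposed to test agent in IL-13-containing medium for 48 h at 36.5 °C. Current-clamp VT/TEER recording in pH 7.4 HEPES saline with benzamil 10 μM, forskolin 10 μM, then CFTRinh-172 20 μM. AUC of equivalent Cl⁻ current between forskolin and inhibitor, expressed as ratio over vehicle.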

The target in assay [2] is T2, human Cystic Fibrosis Transmembrane Conductance Regulator (CFTR) harboring the ΔF508 mutation (Homo sapiens, UniProt P13569, DEL508-508).
T2 construct: expressed in transfected cells; host or cells: H441 carcinoma line (G418-selected)
In words: H441 cell ΔF508-CFTR-HRP cell surface assay (Emax and EC50). The class given is cell-based. The conditions noted are these: for Emax: NCI-H441, NA = Not active. In outline: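 H441 and 41o- bronchial epithelial cells expressing ΔF508-CFTR with an extracellular-loop-4 HRP tag were treated with a 15-point compound series (24.5–0.001 μM) for two nights, H441 at 27° C, 41o- at 37° C with 0.0005 mg/ml doxycycline. Surface HRP luminescence read; % of maximum VX809 signal and EC50 derived.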

What is called EC50 is the concentration at which the effect is half-maximal. Usually Emax stands for the maximal effect, on the per cent scale that the assay sets.

T2 sequence (P13569 with tags, fused parts or gaps DEL508-508): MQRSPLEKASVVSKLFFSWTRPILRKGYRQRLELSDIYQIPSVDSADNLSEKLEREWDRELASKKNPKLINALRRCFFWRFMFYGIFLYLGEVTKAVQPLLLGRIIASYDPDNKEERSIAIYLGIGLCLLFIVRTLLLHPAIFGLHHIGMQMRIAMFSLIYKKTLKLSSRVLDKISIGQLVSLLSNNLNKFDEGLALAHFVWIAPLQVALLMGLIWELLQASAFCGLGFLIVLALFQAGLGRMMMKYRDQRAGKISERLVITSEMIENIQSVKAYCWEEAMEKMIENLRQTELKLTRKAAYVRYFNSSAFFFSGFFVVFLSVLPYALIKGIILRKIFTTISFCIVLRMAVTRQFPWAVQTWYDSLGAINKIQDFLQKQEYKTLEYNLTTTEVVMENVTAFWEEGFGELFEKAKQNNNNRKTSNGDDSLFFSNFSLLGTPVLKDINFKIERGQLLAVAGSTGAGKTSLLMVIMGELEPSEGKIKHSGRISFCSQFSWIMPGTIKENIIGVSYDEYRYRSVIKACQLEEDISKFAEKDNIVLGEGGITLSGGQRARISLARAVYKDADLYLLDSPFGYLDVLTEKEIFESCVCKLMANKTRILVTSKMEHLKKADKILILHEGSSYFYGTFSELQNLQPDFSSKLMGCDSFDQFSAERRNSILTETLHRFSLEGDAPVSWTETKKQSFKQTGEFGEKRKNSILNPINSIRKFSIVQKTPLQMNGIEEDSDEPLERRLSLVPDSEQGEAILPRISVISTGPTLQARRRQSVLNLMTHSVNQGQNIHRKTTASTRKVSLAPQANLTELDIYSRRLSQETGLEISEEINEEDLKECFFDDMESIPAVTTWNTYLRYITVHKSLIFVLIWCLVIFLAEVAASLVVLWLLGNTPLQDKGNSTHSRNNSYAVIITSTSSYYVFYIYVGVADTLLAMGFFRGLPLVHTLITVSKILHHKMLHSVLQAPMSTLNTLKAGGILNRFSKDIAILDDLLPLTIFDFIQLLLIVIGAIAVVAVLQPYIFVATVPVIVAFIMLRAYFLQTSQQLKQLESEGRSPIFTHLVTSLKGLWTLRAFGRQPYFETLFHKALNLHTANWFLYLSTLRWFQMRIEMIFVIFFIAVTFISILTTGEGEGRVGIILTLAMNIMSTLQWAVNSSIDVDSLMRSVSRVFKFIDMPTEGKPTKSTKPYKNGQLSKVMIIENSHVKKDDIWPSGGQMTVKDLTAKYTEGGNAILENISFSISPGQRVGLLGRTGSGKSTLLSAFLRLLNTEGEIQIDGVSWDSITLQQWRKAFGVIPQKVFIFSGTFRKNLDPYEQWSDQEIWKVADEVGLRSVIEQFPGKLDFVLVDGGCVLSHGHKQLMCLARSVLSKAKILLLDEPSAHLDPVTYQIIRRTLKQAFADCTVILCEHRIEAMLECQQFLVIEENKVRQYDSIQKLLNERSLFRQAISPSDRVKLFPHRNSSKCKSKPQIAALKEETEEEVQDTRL
T1 sequence (P13569 with tags, fused parts or gaps DEL508-508): as above

`CC1([C@H](NC(=O)c2ccc3c(F)cccc3c2OCc2ccc(C(F)(F)F)cc2)C(=O)O)CCCC1` [Example 303, (S)-2-(5-fluoro-1-((4-(trifluoromethyl)benzyl)oxy)-2-naphthamido)-2-(1-methylcyclopentyl)acetic Acid]: the “TECC24 AUC fold over DMSO @10 μM” value in assay [1] is “B (“B” refers to AUC @10 uM between 4-6)”. Moreover, in assay [2], the EC50 was determined as 700 nM and the Emax came to 174%.

With `O=C(N[C@@H](Cc1ccco1)C(=O)O)c1ccc2ccccc2c1OCc1ccc(C(F)(F)F)cc1` [Example 136, (S)-3-(furan-2-yl)-2-(1-((4-(trifluoromethyl)benzyl)oxy)-2-naphthamido)propanoic Acid], the “TECC24 AUC fold over DMSO @10 μM” value in assay [1] is reported as “C (“C” refers to AUC @10 uM <4)”. In assay [2], the EC50 came out at 8100 nM and the Emax was determined as 73.6%.

Regarding `C[C@H](OC(C)(C)C)C(NC(=O)c1ccc2ccccc2c1OCc1ccc(C(F)(F)F)cc1)C(=O)O` (stereo partly drawn) [Example 134, (3S)-3-(tert-butoxy)-2-(1-((4-(trifluoromethyl)benzyl)oxy)-2-naphthamido)butanoic Acid], the “TECC24 AUC fold over DMSO @10 μM” value in assay [1] is reported as “C (“C” refers to AUC @10 uM <4)”. In assay [2], this compound registered an EC50 of 1000 nM and an Emax of 84.9%.

As to `Cc1cc(COc2c(C(=O)N[C@H](C(=O)O)C(C)(C)C)ccc3ccccc23)no1` [Example 86, (S)-3,3-dimethyl-2-(1-((5-methylisoxazol-3-yl)methoxy)-2-naphthamido)butanoic Acid], the “TECC24 AUC fold over DMSO @10 μM” value in assay [1] is “C (“C” refers to AUC @10 uM <4)”. In assay [2], the EC50 is 5600 nM and the Emax was 108%.

For the compound `COc1ccc2ccc(C(=O)N[C@H](C(=O)O)C(C)(C)C)c(OCc3ccc(OC(F)(F)F)cc3)c2c1` [Example 310, (S)-2-(7-methoxy-1-((4-(trifluoromethoxy)benzyl)oxy)-2-naphthamido)-3,3-dimethylbutanoic Acid], the “TECC24 AUC fold over DMSO @10 μM” value in assay [1] is recorded as “A (“A” refers to AUC @10 uM >6)”. In assay [2], this compound returned an EC50 of 600 nM and a maximal response (Emax) of 299%.

In the case of `CC(C)(SCC1CC1(F)F)[C@H](NC(=O)c1ccc2ccccc2c1OCC1CCCCC1)C(=O)O` (stereo partly drawn) [Example 165, (2R)-2-(1-(cyclohexylmethoxy)-2-naphthamido)-3-(((2,2-difluorocyclopropyl)methyl)thio)-3-methylbutanoic Acid], in assay [1], the “TECC24 AUC fold over DMSO @10 μM” value is recorded as “C (“C” refers to AUC @10 uM <4)”. In assay [2], this compound had an EC50 of 3400 nM and a maximal effect (Emax) of 113%.

Consider `CCC(C)(C)[C@H](NC(=O)c1ccc2ccc(OC)cc2c1OCc1ccc(OC(F)(F)F)cc1)C(=O)O` [Example 311, (S)-2-(7-methoxy-1-((4-(trifluoromethoxy)benzyl)oxy)-2-naphthamido)-3,3-dimethylpentanoic Acid], for which, in assay [1], the “TECC24 AUC fold over DMSO @10 μM” value was “A (“A” refers to AUC @10 uM >6)”. Moreover, in assay [2], the midpoint of the response, the EC50, lay at 500 nM and the Emax was 345%.

`O=C(N[C@@H](Cc1ccc(C(F)(F)F)cc1)C(=O)O)c1ccc2cc(F)ccc2c1OCc1ccc(Cl)c(Cl)c1` [Example 210, (S)-2-(1-((3,4-dichlorobenzyl)oxy)-6-fluoro-2-naphthamido)-3-(4-(trifluoromethyl)phenyl)propanoic Acid]: the “TECC24 AUC fold over DMSO @10 μM” value in assay [1] is listed as “C (“C” refers to AUC @10 uM <4)”. Further, in assay [2], the response was half-maximal at 4300 nM (EC50) and the Emax came out at 38.8%.

For the compound `CCC(C)(C)[C@H](NC(=O)c1ccc2ccc(C)cc2c1OCc1ccc(OC(F)(F)F)cc1)C(=O)O` [Example 280, (S)-3,3-dimethyl-2-(7-methyl-1-((4-(trifluoromethoxy)benzyl)oxy)-2-naphthamido)pentanoic Acid], in assay [1], the “TECC24 AUC fold over DMSO @10 μM” value was “A (“A” refers to AUC @10 uM >6)”. Moreover, in assay [2], the EC50 worked out at 300 nM and the Emax was 309%.

Turning to `CC1(C(NC(=O)c2ccc3ccccc3c2OCc2ccc(S(=O)(=O)C(F)(F)F)cc2)C(=O)O)CCCCC1` (stereo not drawn) [Example 77, 2-(1-methylcyclohexyl)-2-(1-((4-((trifluoromethyl)sulfonyl)benzyl)oxy)-2-naphthamido)acetic Acid], the “TECC24 AUC fold over DMSO @10 μM” value in assay [1] is “C (“C” refers to AUC @10 uM <4)”. In assay [2], this compound came in with an EC50 of 700 nM and an Emax of 78.9%.

Consider `CC(C)(C)[C@H](NC(=O)c1ccc2ccccc2c1OCc1ccc(S(=O)(=O)C(F)(F)F)cc1)C(=O)O` [Example 57, (S)-3,3-dimethyl-2-(1-((4-((trifluoromethyl)sulfonyl)benzyl)oxy)-2-naphthamido)butanoic Acid], for which the “TECC24 AUC fold over DMSO @10 μM” value in assay [1] is recorded as “C (“C” refers to AUC @10 uM <4)”. In assay [2], this compound registered an EC50 of 1500 nM and an Emax of 87.9%.

Consider `O=C(NC(C(=O)O)C1(C(F)(F)F)CC1)c1ccc2ccc(Cl)cc2c1OCc1ccc(OC(F)(F)F)cc1` (stereo not drawn) [Example 238, 2-(7-chloro-1-((4-(trifluoromethoxy)benzyl)oxy)-2-naphthamido)-2-(1-(trifluoromethyl)cyclopropyl)acetic Acid], for which the “TECC24 AUC fold over DMSO @10 μM” value in assay [1] is listed as “C (“C” refers to AUC @10 uM <4)”. In assay [2], this compound returned an EC50 of 800 nM and an Emax of 143%.

In the case of `CC(C)(C)C[C@H](NC(=O)c1ccc2ccccc2c1OCc1ccc(C(F)(F)F)cc1)C(=O)O` [Example 141, (S)-4,4-dimethyl-2-(1-((4-(trifluoromethyl)benzyl)oxy)-2-naphthamido)pentanoic Acid], the “TECC24 AUC fold over DMSO @10 μM” value in assay [1] is on record as “A (“A” refers to AUC @10 uM >6)”. Besides, in assay [2], the concentration giving a half-maximal response (EC50) amounted to 2300 nM and the Emax is 147%.

With `CCC(C)(C)[C@H](NC(=O)c1ccc2ccc(C)cc2c1OCCCC(C)C)C(=O)O` [Example 294, 3,3-Dimethyl-2-{[7-methyl-1-(4-methyl-pentyloxy)-naphthalene-2-carbonyl]-amino}-pentanoic Acid], the “TECC24 AUC fold over DMSO @10 μM” value in assay [1] was “A (“A” refers to AUC @10 uM >6)”. In assay [2], the EC50 is 1000 nM and the Emax amounted to 281%.

As to `Cc1cc(C)c(C[C@H](NC(=O)c2ccc3ccccc3c2OCc2ccc(C(F)(F)F)cc2)C(=O)O)c(C)c1` [Example 178, (S)-3-mesityl-2-(1-((4-(trifluoromethyl)benzyl)oxy)-2-naphthamido)propanoic Acid], the “TECC24 AUC fold over DMSO @10 μM” value in assay [1] was “C (“C” refers to AUC @10 uM <4)”. In assay [2], this compound yielded an EC50 of 900 nM and an Emax of 150%.

For `CC(C)(C)[C@H](NC(=O)c1ccc2ccc(Cl)cc2c1OCc1ccc(C(F)(F)F)cc1)C(=O)O` [Example 286, (S)-2-(7-chloro-1-((4-(trifluoromethyl)benzyl)oxy)-2-naphthamido)-3,3-dimethylbutanoic Acid], the “TECC24 AUC fold over DMSO @10 μM” value in assay [1] is listed as “A (“A” refers to AUC @10 uM >6)”. Also, in assay [2], the concentration for a half-maximal effect (EC50) amounted to 100 nM and the Emax turned out to be 353%.

Consider `CC(C)(C)[C@H](NC(=O)c1cc(Br)c2ccccc2c1OCc1ccc(C(F)(F)F)cc1)C(=O)O` [Example 51, (S)-2-(4-bromo-1-((4-(trifluoromethyl)benzyl)oxy)-2-naphthamido)-3,3-dimethylbutanoic Acid], for which the “TECC24 AUC fold over DMSO @10 μM” value in assay [1] is “C (“C” refers to AUC @10 uM <4)”. Moreover, in assay [2], the EC50 was determined as 400 nM and the Emax came out at 200%.

`CC(C)(C)[C@H](NC(=O)c1ccc2ccccc2c1OCC1CCCCC1)C(=O)O` [Example 72, (S)-2-(1-(cyclohexylmethoxy)-2-naphthamido)-3,3-dimethylbutanoic Acid]: the “TECC24 AUC fold over DMSO @10 μM” value in assay [1] is recorded as “C (“C” refers to AUC @10 uM <4)”. Further, in assay [2], the EC50 was 3700 nM and the Emax stood at 144%.

Regarding `CC(C)(S[C@@H]1C[C@@H]2CC[C@H]1C2)[C@H](NC(=O)c1ccc2ccccc2c1OCc1ccc(SC(F)(F)F)cc1)C(=O)O` [Example 174, (R)-3-(((1S,2R,4R)-bicyclo[2.2.1]heptan-2-yl)thio)-3-methyl-2-(1-((4-((trifluoromethyl)thio)benzyl)oxy)-2-naphthamido)butanoic Acid], the “TECC24 AUC fold over DMSO @10 μM” value in assay [1] was “C (“C” refers to AUC @10 uM <4)”. In assay [2], the EC50 stood at 300 nM and the Emax stood at 117%.

`CCC(C)(C)[C@H](NC(=O)c1ccc2c(F)cccc2c1OCc1ccc(OC(F)(F)F)cc1)C(=O)O` [Example 226, (2S)-2-[[5-fluoro-1-[[4-(trifluoromethoxy)phenyl]methoxy]naphthalene-2-carbonyl]amino]-3,3-dimethyl-pentanoic Acid]: in assay [1], the “TECC24 AUC fold over DMSO @10 μM” value was “B (“B” refers to AUC @10 uM between 4-6)”. In assay [2], the midpoint of the response, the EC50, lay at 400 nM and the Emax is 139%.

On to `CC(C)(C)[C@H](NC(=O)c1ccc2ccc(-c3cscn3)cc2c1OCc1ccc(OC(F)(F)F)cc1)C(=O)O` [Example 252, (2S)-3,3-dimethyl-2-[[7-thiazol-4-yl-1-[[4-(trifluoromethoxy)phenyl]methoxy]naphthalene-2-carbonyl]amino]butanoic Acid], for which the “TECC24 AUC fold over DMSO @10 μM” value in assay [1] was “A (“A” refers to AUC @10 uM >6)”. Further, in assay [2], the EC50 was 600 nM and the Emax came to 110%.

Take `O=C(N[C@H](C(=O)O)C(c1ccccc1)c1ccccc1)c1ccc2cc(F)ccc2c1OCc1ccc(C(F)(F)F)cc1` [Example 196]: the “TECC24 AUC fold over DMSO @10 μM” value in assay [1] is recorded as “C (“C” refers to AUC @10 uM <4)”. Moreover, in assay [2], the midpoint of the response, the EC50, lay at 300 nM and the Emax worked out at 101%.
